The structures appear in SMILES notation. Bounds are passed on as bounds.

In data set [1] the test system is Human diploid fibroblasts BJ. The data set is described as follows: Attachment frequency test (adherence of fibroblasts). Format: cell-based. Particulars: 0-25 μM, attached cells counted after 6 hours, BJ passage 19. On the procedure:
Attachment frequency test is one of the methods for evaluation of acute toxicity of compounds against adherent cells. The tested compound is added into the medium with a defined number of trypsinised cells and after certain time the number of attached cells is counted. Human diploid fibroblasts BJ (passage 19) and standard cultivation medium (DMEM with 5 g/l glucose, 2 mM glutamin, 100 U/ml penicillin, 100 μg/ml streptomycin and 10% fetal calf serum) were used. The attached cells were counted after 6 hours. The experiment was done in three repetitions. […] Thus the compound doesn't show acute toxicity against fibroblasts.

In a further data set the target is T1, AHK3 (Arabidopsis thaliana, UniProt Q9C5U1).
T1 sequence (Q9C5U1 1-1036): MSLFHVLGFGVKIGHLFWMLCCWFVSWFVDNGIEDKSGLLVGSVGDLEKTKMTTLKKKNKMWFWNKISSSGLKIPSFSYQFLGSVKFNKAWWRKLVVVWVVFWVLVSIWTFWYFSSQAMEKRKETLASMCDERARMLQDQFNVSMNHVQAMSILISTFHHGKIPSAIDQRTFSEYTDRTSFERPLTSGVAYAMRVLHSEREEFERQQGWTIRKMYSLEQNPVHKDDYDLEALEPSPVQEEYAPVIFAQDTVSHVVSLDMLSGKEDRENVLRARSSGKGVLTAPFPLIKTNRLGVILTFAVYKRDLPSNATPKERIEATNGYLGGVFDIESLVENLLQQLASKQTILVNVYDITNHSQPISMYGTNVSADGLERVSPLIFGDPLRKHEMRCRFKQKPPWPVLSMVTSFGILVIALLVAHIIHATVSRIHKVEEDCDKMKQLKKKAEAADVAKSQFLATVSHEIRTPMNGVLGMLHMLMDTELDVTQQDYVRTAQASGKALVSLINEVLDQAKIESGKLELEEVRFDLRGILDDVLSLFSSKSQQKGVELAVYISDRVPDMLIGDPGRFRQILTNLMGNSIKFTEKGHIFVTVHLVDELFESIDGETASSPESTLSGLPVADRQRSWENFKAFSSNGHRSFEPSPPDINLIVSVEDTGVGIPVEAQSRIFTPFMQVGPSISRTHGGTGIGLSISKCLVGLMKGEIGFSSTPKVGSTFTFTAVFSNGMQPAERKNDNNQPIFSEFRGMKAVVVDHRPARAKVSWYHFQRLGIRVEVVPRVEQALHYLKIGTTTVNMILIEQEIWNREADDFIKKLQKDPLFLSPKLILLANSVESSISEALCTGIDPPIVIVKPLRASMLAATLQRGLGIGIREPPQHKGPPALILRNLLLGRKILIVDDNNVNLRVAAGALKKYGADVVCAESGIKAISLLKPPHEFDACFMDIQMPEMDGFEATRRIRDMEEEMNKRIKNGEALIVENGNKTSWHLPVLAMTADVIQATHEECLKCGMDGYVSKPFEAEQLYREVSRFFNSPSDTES
The experiment in a line: Activation of cytokinin receptors (E. coli KMI001 beta-galactosidase reporter). Particulars: 28 h incubation; n.a. means no activation. Format: cell-based. The procedure, abridged:
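E. coli KMI001 carrying the receptor plasmid was grown in M9 + 0.1% casamino acids at 25 °C, diluted 1:600 and treated with compound (stock solutions 10^-7–5×10^-5 M). Supernatant β-galactosidase was read by 4-methylumbelliferyl galactoside hydrolysis (1 h, 37 °C, Na2CO3 stop). EC50 came from dose-response curves, triplicate means.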

In data set [2] the test system is erytroid leukemia cell line K-562. The experiment in a line: Calcein AM cytotoxicity assay. The class given is cell-based, human. Particulars: Homo sapiens, K562, 72 hours. In short, it runs like this:
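Cells seeded at 2.500-30.000 per well, pre-incubated 24 h, then exposed 72 h at 37 °C to six 3-fold dilutions (top 166.6 μM), in triplicate. Calcein AM added to 1 μg/ml for 1 h; fluorescence gives growth inhibition, GI50 taken from dose-response curves.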

In the case of `Clc1nc(Nc2ccccc2)c2[nH]cnc2n1` [Compound 1, 2-Chloro-6-anilinopurine], the Attachment percentage entry in data set [1] is given as “not significantly influenced”.

At AHK3, `Clc1cccc(Nc2nc(Cl)nc3nc[nH]c23)c1` [Compound 3, 2-Chloro-6-(3-chloroanilino)purine] had an EC50 of 20 µM. For the compound `Clc1ccc(Nc2nc(Cl)nc3[nH]cnc23)cc1` [Compound 4], the GI50 in data set [2] was over 167 µM. Same read-out and setting: the result for `Fc1cccc(Nc2nc(Cl)nc3nc[nH]c23)c1` [Compound 6, 2-Chloro-6-(3-fluoroanilino)purine] reads over 167 µM. On to `Oc1cccc(Nc2nc(Cl)nc3nc[nH]c23)c1` [Compound 9, 2-Chloro-6-(3-hydroxyanilino)purine], for which the EC50 on AHK3 came to 2.8 µM.

On to `COc1cccc(Nc2nc(Cl)nc3nc[nH]c23)c1` [Compound 12, 2-Chloro-6-(3-methoxyanilino)purine], for which a half-maximal effect on AHK3 (EC50) was put at 9.5 µM. With `Fc1nc(Nc2ccccc2)c2nc[nH]c2n1` [Compound 40], at AHK3, a half-maximal effect (EC50) was put at 19 µM.

In the case of `Fc1nc(Nc2cccc(Cl)c2)c2nc[nH]c2n1` [Compound 42], the EC50 at AHK3 amounted to 31.6 µM. As to `Oc1cccc(Nc2nc(F)nc3[nH]cnc23)c1` [Compound 48], on AHK3, the response was half-maximal at 15 µM (EC50). Besides, the 50% growth inhibitory concentration (GI50) in data set [2] was over 167 µM.

On AHK3, `COc1cccc(Nc2nc(F)nc3nc[nH]c23)c1` [Compound 51, 2-Fluoro-6-(3-methoxyanilino)purine] registered a concentration giving a half-maximal response (EC50) of 22.7 µM. On the same count and under the same terms, the result for `Nc1nc(Nc2cccc(Cl)c2)c2nc[nH]c2n1` [Compound 66] reads 43 µM; that for `Nc1nc(Nc2cccc(O)c2)c2nc[nH]c2n1` [Compound 72], 7.7 µM; that for `Fc1cccc(Nc2nc(S)nc3[nH]cnc23)c1` [Compound 83], over 50 µM.

These data come from patent publication US8222260B2, “Substituted 6-anilinopurine derivatives as inhibitors of cytokinin oxidase/dehydrogenase and preparations containing these derivatives” (Univerzita Palackego V Olomouci, priority 2007, dated 2012).
